{"source": "patent US20110098492A1", "about": "“CLEANING COMPOSITIONS CONTAINING MID-RANGE ALKOXYLATES” (priority 2008, published 2011)", "key": {"[1]": {"experiment": "Gel range in water at 23 C", "type": "physicochemical", "set-up": "key: L = Liquid; G = Gel; TL = Thick Liquid", "method": "One way the industry expresses a tendency of a surfactant to cause gels is a “gel range.” A typical gel range describes a percentage of samples that form gels, out of a number of samples, each having increasing surfactant concentration. […] A sample forms a gel when it is non-pourable for at least five seconds at 23° centigrade (° C.) when its container is inverted 180° so the container's open spout or mouth faces down. For many applications, a surfactant ideally has no gel range.\nD) Gel range: Ten surfactant solutions are made using 0%, 10%, 20%, 30%, 40%, 50%, 60%, 70%, 80%, 90% water. […] The test is run at 23 C."}, "[2]": {"experiment": "Ross-Miles foam height test (ASTM D1173)", "type": "physicochemical", "conditions": "for Ross Miles Foam Height, millimeters, Initial: Initial (0 sec)", "method": "A) Ross-Miles Foam Height Test: This test is carried out according to the protocol of ASTM […]."}, "[3]": {"experiment": "Pour point test (ASTM D97)", "type": "physicochemical", "method": "C) Pour Point Test: This test is carried out according to the protocol of ASTM Test D97."}, "[4]": {"experiment": "Cleaning of cross-linked petroleum grease (1-octadecene soil)", "conditions": "for Arbitrary Gray Value: 1% by weight in water, cross-linked 1-octadecene soil", "from_the_text": "The same procedure used above for cross-linked triglycerides was used, except that 1-octadecene was used instead of Canola Oil."}, "[5]": {"experiment": "Surface tension and critical micelle concentration (Wilhelmy plate)", "type": "physicochemical", "method": "B) Surface Tension and Critical Micelle Concentration (CMC) Measurement. For this test the surface tension of a surfactant-water solution is measured while incrementally adding the surfactant to de-ionized water. Results are measured in terms of dyne/centimeters using a Wilhelmy plate. Results are recorded versus surfactant concentration. The Critical Micelle Concentration is the point at which an increase in surfactant concentration no longer results in a change in surface tension."}, "[6]": {"conditions": "background statement on commercial surfactants; cited from earlier work"}, "[7]": {"experiment": "Formula stability with LAS, sodium citrate and water", "type": "physicochemical", "set-up": "key to Formula stability: S = Stable; U = Unstable", "from_the_text": "When mixed with dodecyl benzene sulfonic acid (sodium salt), and sodium citrate in water, the surfactants of the present invention show enhanced formula stability relative to conventional surfactants."}, "[8]": {"experiment": "Cleaning of cross-linked triglycerides (Gardner scrubber, soiled vinyl tile)", "set-up": "key to Arbitrary Gray Value: mean gray value of tile image (ImageJ)", "conditions": "120 back-and-forth strokes, higher = better cleaning", "method": "Test panels coated with mixtures of triglycerides and cross-linked triglycerides were prepared and evaluated using the following procedure. Cobalt Naphthenate was used as a catalyst to accelerate the oxidation of vegetable oil to give a hard varnish. Carbon black is added to the varnish to enable easy visual comparison of the ability to clean the cross-linked triglyceride from the surface.\nSubstrate Panels: White Vinyl Floor Tile: Tarket Corporation Azrock™ VS304-3 (6913) cut to 4¼×4¼ inch (to fit the Gardner Linear Motion Scrubber).\nSoil Formulation: 100 grams Canola Oil (Food Grade, 100%, Kroger Co. Cincinnati, Ohio 45202); 2 grams Acetylene Carbon Black (Cat #39724, Alfa Aesar; Surface area=74 sq m/g); 20 grams drying agent: Cobalt Naphthenate Solution (Aldrich Cat #54,457-4, CAS #61789-51-3) (Comes as a 6% solution in petroleum solvent); Oven: Convection oven set at 160° F.\nScrubbing Tester: Gardco washability & Wear Tester; Linear Motion Test Equipment; Model D12-V Cat #WA-2164 (Paul N. Gardner Company, Inc. 316 N.E. First Street, Pompano, Beach, Fla. 33060.\nSponges: “Do-It” Cellulose Sponge, 1⅝ in thick, cut to 3″×4″. Manufactured by Bloch/New England for HWI, Fort Wayne, Ind. 46801;\nPaint Brushes: Economy Chip Brush 1 Inch. www.lgsourcing.com Model #0106; Item #103407 obtained from Lowes, Inc. L. G. Sourcing, Inc. P.O. Box 1535 North Wilkseboro, N.C. 28659\nReflectance Meter: HunterLab ColorQuest XE\nPrepare a stock solution by mixing 98 grams of canola oil (food grade) with 2.0 g acetylene-based carbon black (Cat #39724, Alfa Aesar; Surface area=74 sq m/g). Mix with a disperser at 2000 rpm for 15 min. (We used a Caframo Model BDC 3030 with a 0.50 dispersing blade).\nAdd 20.0 grams Cobalt Naphthenate Solution and mix well (by hand, using a glass stir rod).\nPlace 1.6 grams soil per 4×4 inch tile.\nPaint to a thin film using a clean 1-inch economy brush. Use several strokes to get to an even coating. Use a clean, dry brush for each application. (After the application, each brush can be cleaned with acetone, dried, and then re-used).\nPlace in a convection oven set at 160 F for 16 hours. We place the panels in an oven at 4:00 p.m, and then remove the panels at 8:00 a.m. the next morning. Let the panels cool for 1 hour.\nUse the panels within 10 days\nPlace a panel in the Gardner Scrubber\n[…] (We use 5.0 grams surfactant diluted to 500 mL water).\nPrepare a sponge by rinsing several times in cold tap water. Completely squeeze out the sponge by hand.\nAfter each test, rinse out the sponge 15-20 times (by repeated sorption and squeezing) until there is no noticeable surfactant solution left (usually indicated by a lack of foam).\nPour 500 mL of surfactant solution into a beaker\nPlace the sponge into the beaker—allowing it to soak up as much surfactant as possible.\nPlace the sponge into the Gardner Scrubber.\nPour the remaining liquid (approx 400 mL) over the test panel in the scrubber. There should be enough liquid to just cover the test panel.\nProgram the scrubber to perform 120 back-and-forth strokes (for a total of 240 linear strokes). We define each back-and-forth stroke as “1 stroke”\nRemove the panel rinse with tap water\nClean the Gardner scrubber by rinsing with tap water.\nClean the sponge by squeezing it out under tap water 20-30 times until clean.\nRemove excess water from the sponge by squeezing as much liquid out as possible.\nAfter the panel is dry, either take pictures (for visual comparison of cleaning) or measure the reflectance using the Xyy mode of a Hunter Colorimeter. Alternatively, the mean gray value can be obtained by taking a picture of the tiles and processing computer image with ImageJ™ software, which is distributed freely by the National Institute of Health (nih.gov)."}}, "data": [{"substance": "2EH(PO)5.5(EO)8 [Example 3]", "values": [{"measurement": "Gel Range, Percent Surfactant in Water at 23 C.", "setting": "[1]; 10% surfactant in water", "value": "L"}, {"measurement": "Gel Range, Percent Surfactant in Water at 23 C.", "setting": "[1]; 20% surfactant in water", "value": "L"}, {"measurement": "Gel Range, Percent Surfactant in Water at 23 C.", "setting": "[1]; 30% surfactant in water", "value": "L"}, {"measurement": "Gel Range, Percent Surfactant in Water at 23 C.", "setting": "[1]; 40% surfactant in water", "value": "L"}, {"measurement": "Gel Range, Percent Surfactant in Water at 23 C.", "setting": "[1]; 50% surfactant in water", "value": "L"}, {"measurement": "Gel Range, Percent Surfactant in Water at 23 C.", "setting": "[1]; 60% surfactant in water", "value": "L"}, {"measurement": "Gel Range, Percent Surfactant in Water at 23 C.", "setting": "[1]; 70% surfactant in water", "value": "L"}, {"measurement": "Gel Range, Percent Surfactant in Water at 23 C.", "setting": "[1]; 80% surfactant in water", "value": "TL"}, {"measurement": "Gel Range, Percent Surfactant in Water at 23 C.", "setting": "[1]; 90% surfactant in water", "value": "L"}, {"measurement": "Ross Miles Foam Height, millimeters, 5 Minutes", "setting": "[2]", "value": 0, "unit": "millimeters"}, {"measurement": "Ross Miles Foam Height, millimeters, Initial", "setting": "[2]", "value": 45, "unit": "millimeters"}, {"measurement": "Pour Point", "setting": "[3]", "value": 44, "unit": "° F."}, {"measurement": "Arbitrary Gray Value", "setting": "[4]", "value": 136}, {"measurement": "cleaning of cross-linked 1-octadecene / mineral oil (in words)", "setting": "[4]; compared with Tergitol NP-9", "value": "equivalent to Tergitol NP-9"}, {"measurement": "Surface Tension", "setting": "[5]; 0.1 wt % in water", "value": 31, "unit": "dyne/centimeters"}, {"measurement": "Critical Micelle Concentration", "setting": "[5]; in de-ionized water", "value": 1750, "unit": "ppm"}]}, {"substance": "nonylphenoxy (polyoxyethylene-9) [NP-9, reference compound]", "values": [{"measurement": "Gel Range, Percent Surfactant in Water at 23 C.", "setting": "[1]; 10% surfactant in water", "value": "L"}, {"measurement": "Gel Range, Percent Surfactant in Water at 23 C.", "setting": "[1]; 20% surfactant in water", "value": "L"}, {"measurement": "Gel Range, Percent Surfactant in Water at 23 C.", "setting": "[1]; 30% surfactant in water", "value": "L"}, {"measurement": "Gel Range, Percent Surfactant in Water at 23 C.", "setting": "[1]; 40% surfactant in water", "value": "L"}, {"measurement": "Gel Range, Percent Surfactant in Water at 23 C.", "setting": "[1]; 50% surfactant in water", "value": "L"}, {"measurement": "Gel Range, Percent Surfactant in Water at 23 C.", "setting": "[1]; 60% surfactant in water", "value": "G"}, {"measurement": "Gel Range, Percent Surfactant in Water at 23 C.", "setting": "[1]; 70% surfactant in water", "value": "G"}, {"measurement": "Gel Range, Percent Surfactant in Water at 23 C.", "setting": "[1]; 80% surfactant in water", "value": "G"}, {"measurement": "Gel Range, Percent Surfactant in Water at 23 C.", "setting": "[1]; 90% surfactant in water", "value": "L"}, {"measurement": "gel formation / gel range when mixed with water (in words)", "setting": "[6]", "value": "forms resilient, slow-dissolving gels"}, {"measurement": "Ross Miles Foam Height, millimeters, 5 Minutes", "setting": "[2]", "value": 35, "unit": "millimeters"}, {"measurement": "Ross Miles Foam Height, millimeters, Initial", "setting": "[2]", "value": 145, "unit": "millimeters"}, {"measurement": "Pour Point", "setting": "[3]", "value": 30, "unit": "° F."}, {"measurement": "Formula stability", "setting": "[7]; 15% LAS/0% Na Cit in water", "value": "U"}, {"measurement": "Formula stability", "setting": "[7]; 15% LAS/1% Na Cit in water", "value": "U"}, {"measurement": "Formula stability", "setting": "[7]; 15% LAS/2% Na Cit in water", "value": "U"}, {"measurement": "Formula stability", "setting": "[7]; 15% LAS/4% Na Cit in water", "value": "U"}, {"measurement": "Arbitrary Gray Value", "setting": "[4]", "value": 95}, {"measurement": "Arbitrary Gray Value", "setting": "[8]; 0.5% by weight in water", "value": 108}, {"measurement": "Arbitrary Gray Value", "setting": "[8]; 1% by weight in water", "value": 177}]}]}
